From PubChem BioAssay (NCI)
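Cultured in 96-well plates, cells were exposed to test compound for 48 hours across five concentrations. At the TGI there is no net growth.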

What was measured:
Assay in all cases: DTP human tumour cell line panel, 48 h
786-0 renal = tested on: 786-0 renal
A498 renal = tested on: A498 renal
BT-549 breast = tested on: BT-549 breast
CAKI-1 renal = tested on: CAKI-1 renal
COLO 205 colon = tested on: COLO 205 colon
HS 578T breast = tested on: HS 578T breast
KM12 colon = tested on: KM12 colon
MCF7 breast = tested on: MCF7 breast
MDA-MB-435 = tested on: MDA-MB-435
NCI-H23 lung = tested on: NCI-H23 lung
NCI-H460 lung = tested on: NCI-H460 lung
SF-295 CNS = tested on: SF-295 CNS
SF-539 CNS = tested on: SF-539 CNS
SK-MEL-28 melanoma = tested on: SK-MEL-28 melanoma
SK-OV-3 ovarian = tested on: SK-OV-3 ovarian
SR leukemia = tested on: SR leukemia
UACC-257 melanoma = tested on: UACC-257 melanoma
OVCAR-4 ovarian = tested on: OVCAR-4 ovarian
HCC-2998 colon = tested on: HCC-2998 colon
RXF 393 renal = tested on: RXF 393 renal

SMILES | TGI (786-0 renal) [µM] | TGI (A498 renal) [µM] | TGI (BT-549 breast) [µM] | TGI (CAKI-1 renal) [µM] | TGI (COLO 205 colon) [µM] | TGI (HS 578T breast) [µM] | TGI (KM12 colon) [µM] | TGI (MCF7 breast) [µM] | TGI (MDA-MB-435) [µM] | TGI (NCI-H23 lung) [µM] | TGI (NCI-H460 lung) [µM] | TGI (SF-295 CNS) [µM] | TGI (SF-539 CNS) [µM] | TGI (SK-MEL-28 melanoma) [µM] | TGI (SK-OV-3 ovarian) [µM] | TGI (SR leukemia) [µM] | TGI (UACC-257 melanoma) [µM] | TGI (OVCAR-4 ovarian) [µM] | TGI (HCC-2998 colon) [µM] | TGI (RXF 393 renal) [µM]
CC(=O)/C(N=Nc1ccc(-n2c(C)nc3ccc(Br)cc3c2=O)cc1)=C(/C)O | > 100 | > 100 | > 100 | > 100 | > 100 | 91.2 | > 100 | > 100 | > 100 | > 100 | > 100 | > 100 | > 100 | > 100 | > 100 | > 100 | > 100 | – | – | –
CN(C(=O)[C@@H](NC(=O)OC(C)(C)C)c1ccccc1)[C@H]1CCCC[C@@H]1N1CCCC1 | > 100 | > 100 | > 100 | > 100 | > 100 | > 100 | > 100 | > 100 | > 100 | > 100 | – | > 100 | > 100 | > 100 | > 100 | > 100 | > 100 | > 100 | – | –
COC(=O)C1=C([C@H]2COC(C)(C)O2)[C@H]2C[C@@H]1[C@@H]1OC(C)(C)O[C@@H]12 | > 100 | > 100 | > 100 | – | > 100 | > 100 | > 100 | > 100 | > 100 | > 100 | > 100 | > 100 | > 100 | > 100 | > 100 | > 100 | > 100 | > 100 | > 100 | > 100
COc1cc(OC)cc(-n2c(N)c(-c3nc4ccccc4s3)c3ccc([N+](=O)[O-])cc3c2=O)c1 | > 100 | 76.7 | > 100 | > 100 | > 100 | > 100 | > 100 | > 100 | > 100 | > 100 | > 100 | > 100 | 37.5 | > 100 | > 100 | 89.7 | > 100 | 78.9 | > 100 | –
COCOc1cc(OC)c(Br)cc1C/C(=N/O)C(=O)OC | > 100 | – | > 100 | > 100 | > 100 | 57.3 | > 100 | > 100 | > 100 | > 100 | > 100 | > 100 | > 100 | > 100 | > 100 | > 100 | > 100 | > 100 | > 100 | > 100
C[n+]1c2ccccc2c(C(=O)NC(CCCN=C(N)N)C(=O)O)c2ccccc21 (stereo not drawn) | > 100 | > 100 | > 100 | – | > 100 | > 100 | > 100 | > 100 | > 100 | > 100 | > 100 | > 100 | > 100 | > 100 | > 100 | > 100 | > 100 | > 100 | > 100 | –
C=C1C(=O)CCC1C(=O)O (stereo not drawn) | > 100 | > 100 | > 100 | – | > 100 | > 100 | > 100 | > 100 | > 100 | > 100 | > 100 | > 100 | > 100 | > 100 | > 100 | > 100 | > 100 | > 100 | > 100 | > 100
N#Cc1c(N)c2c(c(-c3ccccc3)c1-c1ccccc1)C(=O)N(Nc1ccccc1)C2=O | > 100 | > 100 | > 100 | > 100 | 56.7 | > 100 | 56.4 | > 100 | > 100 | – | > 100 | > 100 | > 100 | > 100 | – | > 100 | > 100 | > 100 | > 100 | 65.2
COc1cccc(CCn2c(N)c(C(=O)O)c3ccc([N+](=O)[O-])cc3c2=O)c1 | > 100 | > 100 | 87.4 | > 100 | 45.9 | > 100 | – | 57.7 | > 100 | 64.7 | > 100 | > 100 | – | > 100 | > 100 | > 100 | – | > 100 | > 100 | > 100
OC12CC3c4ccccc4NC3C3Oc4cccc5c4C31CCN(CC1CC1)C2C5 (stereo not drawn) | 32.2 | 32.2 | 34.7 | 32.4 | 39.7 | 46.3 | 37.3 | 32.8 | 32.3 | 30.6 | 32.4 | 94.1 | 90.5 | 28.6 | 34.6 | 59 | 32.4 | 55.5 | – | 27.7
N#C/C(=C\c1ccc(F)cc1)c1nc2ccccc2c(=O)[nH]1 | > 100 | – | > 100 | > 100 | > 100 | > 100 | > 100 | > 100 | > 100 | – | > 100 | > 100 | > 100 | > 100 | > 100 | > 100 | > 100 | > 100 | > 100 | > 100
CC(=O)/C=C(/C=N/O)c1ccccc1 | > 100 | – | > 100 | > 100 | > 100 | > 100 | > 100 | > 100 | > 100 | > 100 | > 100 | > 100 | > 100 | > 100 | > 100 | > 100 | > 100 | > 100 | > 100 | –
COc1cc(/C=C/C=C2\CCC/C(=C\C=C\c3ccc(O)c(OC)c3)C2=O)ccc1O | 63.5 | – | 60.5 | 34.2 | 71.5 | > 100 | 97.4 | 36 | > 100 | > 100 | 57.7 | 27 | 45.9 | 30.2 | > 100 | 19.7 | 31.4 | > 100 | > 100 | 41.7
CCOC(=O)c1c(C)noc1/N=N/N(CCO)CCO | > 100 | 75.3 | > 100 | > 100 | 70.1 | > 100 | > 100 | > 100 | > 100 | > 100 | > 100 | > 100 | – | > 100 | > 100 | 66.1 | 86.5 | > 100 | 78.3 | 50.3
Cc1ccc(/C=N/Nc2cc(C)c3ccccc3n2)s1 | > 100 | – | 42 | 37 | > 100 | > 100 | 38.5 | 39.6 | > 100 | 96.3 | – | 32 | 51.5 | > 100 | 43.2 | > 100 | 50.7 | > 100 | 33.8 | 75.5
COC(=O)/C=C\[C@@H]1[C@H](C)N1S(=O)(=O)c1ccc(C)cc1 (stereo partly drawn) | > 100 | > 100 | > 100 | > 100 | > 100 | > 100 | – | > 100 | > 100 | > 100 | > 100 | > 100 | > 100 | > 100 | > 100 | > 100 | > 100 | > 100 | > 100 | > 100
CCCCCCCC/C=C\CCCCCCCC(=O)OC[C@]1(CO)CCC(=O)O1 | > 100 | > 100 | > 100 | > 100 | > 100 | > 100 | > 100 | > 100 | > 100 | > 100 | > 100 | > 100 | – | > 100 | > 100 | > 100 | > 100 | > 100 | > 100 | > 100
c1ccc(CN2CCCN3CCN(CCCN(Cc4ccccc4)CC3)CC2)cc1 | > 100 | > 100 | > 100 | > 100 | 57.8 | > 100 | > 100 | > 100 | > 100 | > 100 | > 100 | > 100 | > 100 | > 100 | > 100 | > 100 | 68.5 | > 100 | – | > 100
COc1cc(/C=C2\N=C(c3ccccc3)N(c3nc4cc(C)c(C)cc4s3)C2=O)cc(OC)c1OC | > 100 | – | > 100 | > 100 | > 100 | 98 | 71.2 | 43 | 54.9 | – | > 100 | > 100 | 51.4 | > 100 | > 100 | 53.1 | > 100 | > 100 | 45.7 | 65.2
COC(=O)c1ccc(/C=C2\Cc3ccccc3C2=O)cc1 | > 100 | – | > 100 | > 100 | > 100 | > 100 | > 100 | > 100 | > 100 | > 100 | > 100 | > 100 | > 100 | > 100 | > 100 | > 100 | > 100 | > 100 | > 100 | > 100
